Experimental data: ChEMBL document CHEMBL3217532, “New analyses of MIC90 data to aid antibacterial drug discovery” (2011)
Converted amounts (≈) assume the structure as drawn.

How the values were obtained:
Assay type in all cases: functional
Pseudomonas aeruginosa [1] = assay: Antimicrobial activity against Pseudomonas aeruginosa 1951-00
Pseudomonas aeruginosa [2] = assay: Antimicrobial activity against Pseudomonas aeruginosa 1752-00
Pseudomonas aeruginosa [3] = assay: Antimicrobial activity against Pseudomonas aeruginosa 1753-00
Pseudomonas aeruginosa [4] = assay: Antimicrobial activity against Pseudomonas aeruginosa 1957-00
Pseudomonas aeruginosa [5] = assay: Antimicrobial activity against Pseudomonas aeruginosa 1569-05
Pseudomonas aeruginosa [6] = assay: Antimicrobial activity against Pseudomonas aeruginosa 1570-05
Pseudomonas aeruginosa [7] = assay: Antimicrobial activity against Pseudomonas aeruginosa 1613-09
Pseudomonas aeruginosa [8] = assay: Antimicrobial activity against Pseudomonas aeruginosa 1954-00
Pseudomonas aeruginosa [9] = assay: Antimicrobial activity against Pseudomonas aeruginosa PA-4624
Pseudomonas aeruginosa [10] = assay: Antimicrobial activity against Pseudomonas aeruginosa 1565-05
Pseudomonas aeruginosa [11] = assay: Antimicrobial activity against Pseudomonas aeruginosa 1566-05
Pseudomonas aeruginosa [12] = assay: Antimicrobial activity against Pseudomonas aeruginosa 1567-05
Pseudomonas aeruginosa [13] = assay: Antimicrobial activity against Pseudomonas aeruginosa 1568-05
Pseudomonas aeruginosa [14] = assay: Antimicrobial activity against Pseudomonas aeruginosa 1767-00
Pseudomonas aeruginosa [15] = assay: Antimicrobial activity against Pseudomonas aeruginosa 1768-00
Pseudomonas aeruginosa [16] = assay: Antimicrobial activity against Pseudomonas aeruginosa 1956-00
Pseudomonas aeruginosa [17] = assay: Antimicrobial activity against Pseudomonas aeruginosa PA-75
Pseudomonas aeruginosa [18] = assay: Antimicrobial activity against Pseudomonas aeruginosa 1955-00
Pseudomonas aeruginosa [19] = assay: Antimicrobial activity against Pseudomonas aeruginosa 1561-05
Pseudomonas aeruginosa [20] = assay: Antimicrobial activity against Pseudomonas aeruginosa 1563-00
Pseudomonas aeruginosa [21] = assay: Antimicrobial activity against Pseudomonas aeruginosa 1564-05
Pseudomonas aeruginosa [22] = assay: Antimicrobial activity against Pseudomonas aeruginosa 1615-09
Pseudomonas aeruginosa [23] = assay: Antimicrobial activity against Pseudomonas aeruginosa 1761-00
Pseudomonas aeruginosa [24] = assay: Antimicrobial activity against Pseudomonas aeruginosa 1764-00
Pseudomonas aeruginosa [25] = assay: Antimicrobial activity against Pseudomonas aeruginosa 1765-00
Pseudomonas aeruginosa [26] = assay: Antimicrobial activity against Pseudomonas aeruginosa 1766-00
Pseudomonas aeruginosa [27] = assay: Antimicrobial activity against Pseudomonas aeruginosa 1952-00
Pseudomonas aeruginosa [28] = assay: Antimicrobial activity against Pseudomonas aeruginosa 1953-00
Pseudomonas aeruginosa [29] = assay: Antimicrobial activity against Pseudomonas aeruginosa 1562-05
Pseudomonas aeruginosa [30] = assay: Antimicrobial activity against Pseudomonas aeruginosa 1611-09
Pseudomonas aeruginosa [31] = assay: Antimicrobial activity against Pseudomonas aeruginosa 1614-09
Pseudomonas aeruginosa [32] = assay: Antimicrobial activity against Pseudomonas aeruginosa 1619-08
Pseudomonas aeruginosa [33] = assay: Antimicrobial activity against Pseudomonas aeruginosa 1760-00
Pseudomonas aeruginosa [34] = assay: Antimicrobial activity against Pseudomonas aeruginosa PA-1757
Pseudomonas aeruginosa [35] = assay: Antimicrobial activity against Pseudomonas aeruginosa 1527-08
Pseudomonas aeruginosa [36] = assay: Antimicrobial activity against Pseudomonas aeruginosa PA-4991
Pseudomonas aeruginosa [37] = assay: Antimicrobial activity against Pseudomonas aeruginosa PA-4999
Pseudomonas aeruginosa [38] = assay: Antimicrobial activity against Pseudomonas aeruginosa 1612-09
Pseudomonas aeruginosa [39] = assay: Antimicrobial activity against Pseudomonas aeruginosa PA-4995
Pseudomonas aeruginosa [40] = assay: Antimicrobial activity against Pseudomonas aeruginosa 1513-08
Pseudomonas aeruginosa [41] = assay: Antimicrobial activity against Pseudomonas aeruginosa 1515-08
Pseudomonas aeruginosa [42] = assay: Antimicrobial activity against Pseudomonas aeruginosa PA-4990
Pseudomonas aeruginosa [43] = assay: Antimicrobial activity against Pseudomonas aeruginosa PA-4997
Pseudomonas aeruginosa [44] = assay: Antimicrobial activity against Pseudomonas aeruginosa 1523-08
Pseudomonas aeruginosa [45] = assay: Antimicrobial activity against Pseudomonas aeruginosa PA-4993
Pseudomonas aeruginosa [46] = assay: Antimicrobial activity against Pseudomonas aeruginosa 1509-08
Pseudomonas aeruginosa [47] = assay: Antimicrobial activity against Pseudomonas aeruginosa 1510-08
Pseudomonas aeruginosa [48] = assay: Antimicrobial activity against Pseudomonas aeruginosa 1512-08
Pseudomonas aeruginosa [49] = assay: Antimicrobial activity against Pseudomonas aeruginosa 1514-08
Pseudomonas aeruginosa [50] = assay: Antimicrobial activity against Pseudomonas aeruginosa 1521-08
Pseudomonas aeruginosa [51] = assay: Antimicrobial activity against Pseudomonas aeruginosa 1526-08

- MIC90 (Pseudomonas aeruginosa [1]): 0.25 µg/mL (≈ 0.351 µM)
- MIC90 (Pseudomonas aeruginosa [2]): 0.25 µg/mL (≈ 0.351 µM)
- MIC90 (Pseudomonas aeruginosa [3]): 0.5 µg/mL (≈ 0.702 µM)
- MIC90 (Pseudomonas aeruginosa [4]): 0.06 µg/mL (≈ 0.0842 µM)
- MIC90 (Pseudomonas aeruginosa [5]): 0.25 µg/mL (≈ 0.351 µM)
- MIC90 (Pseudomonas aeruginosa [6]): 0.125 µg/mL (≈ 0.175 µM)
- MIC90 (Pseudomonas aeruginosa [7]): 0.25 µg/mL (≈ 0.351 µM)
- MIC90 (Pseudomonas aeruginosa [8]): 0.03 µg/mL (≈ 0.0421 µM)
- MIC90 (Pseudomonas aeruginosa [9]): 0.5 µg/mL (≈ 0.702 µM)
- MIC90 (Pseudomonas aeruginosa [10]): 0.25 µg/mL (≈ 0.351 µM)
- MIC90 (Pseudomonas aeruginosa [11]): 0.125 µg/mL (≈ 0.175 µM)
- MIC90 (Pseudomonas aeruginosa [12]): 0.125 µg/mL (≈ 0.175 µM)
- MIC90 (Pseudomonas aeruginosa [13]): 0.25 µg/mL (≈ 0.351 µM)
- MIC90 (Pseudomonas aeruginosa [14]): 0.125 µg/mL (≈ 0.175 µM)
- MIC90 (Pseudomonas aeruginosa [15]): 0.06 µg/mL (≈ 0.0842 µM)
- MIC90 (Pseudomonas aeruginosa [16]): 0.06 µg/mL (≈ 0.0842 µM)
- MIC90 (Pseudomonas aeruginosa [17]): 0.25 µg/mL (≈ 0.351 µM)
- MIC90 (Pseudomonas aeruginosa [18]): 0.125 µg/mL (≈ 0.175 µM)
- MIC90 (Pseudomonas aeruginosa [19]): 0.5 µg/mL (≈ 0.702 µM)
- MIC90 (Pseudomonas aeruginosa [20]): 0.125 µg/mL (≈ 0.175 µM)
- MIC90 (Pseudomonas aeruginosa [21]): 0.125 µg/mL (≈ 0.175 µM)
- MIC90 (Pseudomonas aeruginosa [22]): 0.25 µg/mL (≈ 0.351 µM)
- MIC90 (Pseudomonas aeruginosa [23]): 0.5 µg/mL (≈ 0.702 µM)
- MIC90 (Pseudomonas aeruginosa [24]): 0.06 µg/mL (≈ 0.0842 µM)
- MIC90 (Pseudomonas aeruginosa [25]): 0.5 µg/mL (≈ 0.702 µM)
- MIC90 (Pseudomonas aeruginosa [26]): 1 µg/mL (≈ 1.4 µM)
- MIC90 (Pseudomonas aeruginosa [27]): 0.25 µg/mL (≈ 0.351 µM)
- MIC90 (Pseudomonas aeruginosa [28]): 0.25 µg/mL (≈ 0.351 µM)
- MIC90 (Pseudomonas aeruginosa [29]): 0.06 µg/mL (≈ 0.0842 µM)
- MIC90 (Pseudomonas aeruginosa [30]): 0.06 µg/mL (≈ 0.0842 µM)
- MIC90 (Pseudomonas aeruginosa [31]): 0.25 µg/mL (≈ 0.351 µM)
- MIC90 (Pseudomonas aeruginosa [32]): 0.03 µg/mL (≈ 0.0421 µM)
- MIC90 (Pseudomonas aeruginosa [33]): 0.5 µg/mL (≈ 0.702 µM)
- MIC90 (Pseudomonas aeruginosa [34]): 4 µg/mL (≈ 5.61 µM)
- MIC90 (Pseudomonas aeruginosa [35]): 0.25 µg/mL (≈ 0.351 µM)
- MIC90 (Pseudomonas aeruginosa [36]): 0.25 µg/mL (≈ 0.351 µM)
- MIC90 (Pseudomonas aeruginosa [37]): 0.25 µg/mL (≈ 0.351 µM)
- MIC90 (Pseudomonas aeruginosa [38]): 0.5 µg/mL (≈ 0.702 µM)
- MIC90 (Pseudomonas aeruginosa [39]): 0.06 µg/mL (≈ 0.0842 µM)
- MIC90 (Pseudomonas aeruginosa [40]): 0.5 µg/mL (≈ 0.702 µM)
- MIC90 (Pseudomonas aeruginosa [41]): 0.5 µg/mL (≈ 0.702 µM)
- MIC90 (Pseudomonas aeruginosa [42]): 0.125 µg/mL (≈ 0.175 µM)
- MIC90 (Pseudomonas aeruginosa [43]): 0.25 µg/mL (≈ 0.351 µM)
- MIC90 (Pseudomonas aeruginosa [44]): 0.25 µg/mL (≈ 0.351 µM)
- MIC90 (Pseudomonas aeruginosa [45]): 0.25 µg/mL (≈ 0.351 µM)
- MIC90 (Pseudomonas aeruginosa [46]): 0.5 µg/mL (≈ 0.702 µM)
- MIC90 (Pseudomonas aeruginosa [47]): 0.5 µg/mL (≈ 0.702 µM)
- MIC90 (Pseudomonas aeruginosa [48]): 0.25 µg/mL (≈ 0.351 µM)
- MIC90 (Pseudomonas aeruginosa [49]): 0.5 µg/mL (≈ 0.702 µM)
- MIC90 (Pseudomonas aeruginosa [50]): 0.5 µg/mL (≈ 0.702 µM)
- MIC90 (Pseudomonas aeruginosa [51]): 0.125 µg/mL (≈ 0.175 µM)
Compound: C[C@H](O)Cn1c(-c2cc(=O)c(O)c[nH]2)nn(S(=O)(=O)NC(=O)N2C(=O)[C@@H](NC(=O)/C(=N\OC(C)(C)C(=O)O)c3csc(N)n3)[C@@H]2C)c1=O
